Measured values taken from ChEMBL document CHEMBL6083258, “Advances in synthesis of novel annulated azecines and their unique pharmacological properties” (Eur J Med Chem, 2024).
Values belong to the compound of their own block, whether it stands above or below them.

Legend:
[1] = target: T1, Acetylcholinesterase (Homo sapiens, UniProt P22303); test: Binding affinity to AChE (unknown origin) assessed as inhibition constant
[2] = target: T1, Acetylcholinesterase; test: Inhibition of human AChE using acetylthiocholine iodide as substrate after 15 mins by Ellman's method
[3] = target: T2, Amine oxidase [flavin-containing] B (Homo sapiens, UniProt P27338); test: Inhibition of MAO-B (unknown origin)
T2 sequence (P27338 whole entry): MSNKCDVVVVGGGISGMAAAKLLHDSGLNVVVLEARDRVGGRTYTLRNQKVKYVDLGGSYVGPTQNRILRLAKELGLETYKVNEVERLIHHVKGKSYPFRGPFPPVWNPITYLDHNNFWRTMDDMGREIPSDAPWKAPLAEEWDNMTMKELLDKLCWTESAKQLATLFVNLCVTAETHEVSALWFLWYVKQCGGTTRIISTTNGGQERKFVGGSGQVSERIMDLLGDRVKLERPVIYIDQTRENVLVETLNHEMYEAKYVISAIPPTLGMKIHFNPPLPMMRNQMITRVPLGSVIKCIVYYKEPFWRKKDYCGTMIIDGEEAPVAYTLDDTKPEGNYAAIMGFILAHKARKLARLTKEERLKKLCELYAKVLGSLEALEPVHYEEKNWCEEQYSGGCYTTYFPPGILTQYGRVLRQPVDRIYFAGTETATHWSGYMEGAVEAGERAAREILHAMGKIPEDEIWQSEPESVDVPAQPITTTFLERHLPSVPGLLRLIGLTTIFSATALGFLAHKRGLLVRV

[4] = system: HepG2; test: Antiproliferative activity against human HepG2 cells assessed as reduction in cell viability incubated for 48 hrs by MTT assay; format: functional, cell-based; conditions: HepG2, 48 h
[5] = target: ATP-dependent translocase ABCB1 (Homo sapiens, UniProt P08183); test: Inhibition of p-glycoprotein (unknown origin)
Chain of ATP-dependent translocase ABCB1 (P08183 whole entry): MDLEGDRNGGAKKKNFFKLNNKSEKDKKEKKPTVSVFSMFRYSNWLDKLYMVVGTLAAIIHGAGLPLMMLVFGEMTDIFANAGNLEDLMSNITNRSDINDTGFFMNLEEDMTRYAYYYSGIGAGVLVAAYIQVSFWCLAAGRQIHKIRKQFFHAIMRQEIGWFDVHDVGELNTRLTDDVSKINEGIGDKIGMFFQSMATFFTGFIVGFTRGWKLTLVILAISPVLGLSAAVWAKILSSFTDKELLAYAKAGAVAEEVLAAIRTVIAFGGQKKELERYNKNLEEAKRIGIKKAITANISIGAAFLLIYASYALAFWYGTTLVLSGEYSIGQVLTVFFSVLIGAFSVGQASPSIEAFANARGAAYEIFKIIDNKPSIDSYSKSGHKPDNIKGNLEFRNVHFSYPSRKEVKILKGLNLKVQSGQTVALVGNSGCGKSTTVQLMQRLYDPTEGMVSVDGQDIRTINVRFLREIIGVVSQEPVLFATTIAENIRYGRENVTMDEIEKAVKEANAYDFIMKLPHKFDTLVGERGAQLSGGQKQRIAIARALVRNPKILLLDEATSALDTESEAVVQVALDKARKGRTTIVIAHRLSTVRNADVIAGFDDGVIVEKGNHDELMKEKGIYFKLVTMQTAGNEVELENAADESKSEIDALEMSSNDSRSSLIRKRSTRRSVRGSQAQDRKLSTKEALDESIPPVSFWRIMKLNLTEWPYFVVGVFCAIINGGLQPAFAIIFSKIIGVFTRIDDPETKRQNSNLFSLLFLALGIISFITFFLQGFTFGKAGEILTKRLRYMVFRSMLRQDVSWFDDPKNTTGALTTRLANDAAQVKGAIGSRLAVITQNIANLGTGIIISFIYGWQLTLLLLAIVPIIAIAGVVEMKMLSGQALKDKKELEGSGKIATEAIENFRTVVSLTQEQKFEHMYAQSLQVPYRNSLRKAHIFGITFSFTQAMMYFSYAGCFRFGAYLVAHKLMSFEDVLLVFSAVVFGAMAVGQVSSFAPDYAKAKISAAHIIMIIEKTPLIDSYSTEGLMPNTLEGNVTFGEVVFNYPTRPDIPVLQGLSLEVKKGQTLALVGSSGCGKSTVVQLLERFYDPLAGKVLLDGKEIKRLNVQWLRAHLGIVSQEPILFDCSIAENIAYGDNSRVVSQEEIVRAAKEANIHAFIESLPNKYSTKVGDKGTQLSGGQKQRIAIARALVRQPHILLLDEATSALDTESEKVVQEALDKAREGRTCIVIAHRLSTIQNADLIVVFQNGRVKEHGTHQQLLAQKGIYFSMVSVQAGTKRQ

[6] = system: MCF7; test: Antiproliferative activity against human MCF7 cells assessed as reduction in cell viability incubated for 48 hrs by MTT assay; format: functional, cell-based; conditions: MCF7, 48 h

T1 sequence (P22303 whole entry): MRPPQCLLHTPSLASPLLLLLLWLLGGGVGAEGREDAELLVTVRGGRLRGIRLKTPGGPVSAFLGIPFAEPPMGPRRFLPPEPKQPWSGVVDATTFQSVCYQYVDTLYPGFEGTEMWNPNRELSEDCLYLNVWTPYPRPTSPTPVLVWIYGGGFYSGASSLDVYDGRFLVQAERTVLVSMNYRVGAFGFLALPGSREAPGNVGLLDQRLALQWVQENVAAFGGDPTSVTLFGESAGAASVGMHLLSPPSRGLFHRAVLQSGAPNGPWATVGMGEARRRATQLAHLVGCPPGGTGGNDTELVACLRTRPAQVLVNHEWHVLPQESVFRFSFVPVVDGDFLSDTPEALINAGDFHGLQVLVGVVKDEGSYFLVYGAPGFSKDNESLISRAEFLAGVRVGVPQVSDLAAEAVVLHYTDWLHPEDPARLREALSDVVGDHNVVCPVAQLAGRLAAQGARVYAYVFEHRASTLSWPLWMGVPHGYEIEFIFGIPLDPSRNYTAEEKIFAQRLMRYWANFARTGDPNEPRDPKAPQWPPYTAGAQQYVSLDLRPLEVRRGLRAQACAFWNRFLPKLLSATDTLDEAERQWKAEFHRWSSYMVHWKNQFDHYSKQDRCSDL

SMILES: COCC1=C=C(c2ccc(OC)cc2)c2cc(OC)c(OC)cc2CCN(C)/C=C\1C(=O)OC
Ki [1]: 4.9 µM

SMILES: COC(=O)/C1=C/N(C)CCc2cc(OC)c(OC)cc2C(C)=C=C1c1ccccc1
IC50 [2]: 14 µM
IC50 [3]: 7.1 µM

IC50 [4]: > 100 µM
IC50 [5]: 0.0042 µM
IC50 [6]: > 100 µM
SMILES: COC(=O)/C1=C/N(C)CCc2cc(OC)c(OC)cc2C(c2ccc(OC)cc2)=C=C1c1ccccc1
